Tests used:
[1] = tested on: patient with lifelong premature ejaculation; experiment: Patient self-injection of bupivacaine at home, subcutaneous, dorsal penis (contemplated Examples 1 and 2); format: in vivo, human; details: dorsally within 1 cm proximal to the glans, self-injected
Experimental: “Prolongation of climax time” means an increase in time (increase in climax baseline time) from which a patient becomes sexually aroused to the time of sexual climax (i.e. orgasm). This is commonly measured as the ‘intravaginal latency time’ and is measured by stopwatch held and activated by the female partner commencing with insertion of male organ into the female, ending at climax of the male. In one aspect, “treating premature ejaculation” means increasing the time between the beginning of sexual arousal of a patient and ejaculation by the patient; and in particular instances, it can mean increasing the time from which sexual intercourse begins to the time of ejaculation. It is contemplated by the present invention, that a patient with lifelong premature ejaculation and relationship stress proceeds to contact their physician. The physician prescribes a teaching injection of 0.2 mL bupivacaine. The administration of bupivacaine is made dorsally just before the glans, e.g., within 1 cm proximal to the glans. The injection is made subcutaneously to the left or right of midline. The injection anesthetizes the dorsal penile nerve. A 30-32 gauge needle is used, and the need is 10 mm or less (e.g., between 4-10 mm, e.g., 4 mm). […] In one aspect the patient sees an improvement in prolonging climax from 45 seconds (prior to treatment) to 4 minutes (following treatment). It is contemplated by the present invention, that a patient with lifelong premature ejaculation and relationship stress proceeds to contact their physician. The physician prescribes a teaching injection of 0.4 mL bupivacaine. The administration of bupivacaine is made dorsally just before the glans, e.g., within 1 cm proximal to the glans. The injection is made subcutaneously to the left or right of midline. The injection anesthetizes the dorsal penile nerve. A 30-32 gauge needle is used, and the need is 7 mm or less (between 4-7 mm). […] In one aspect the patient sees an improvement in prolonging climax from 45 seconds (prior to treatment) to 4 minutes (following treatment).

[2] = tested on: patient with premature ejaculation; experiment: Randomized blinded study of clinician-administered bupivacaine injection, IELT and PEP recorded (Example 4); format: in vivo, human; details: 0.25% bupivacaine
Experimental: A patient with premature ejaculation is 18 years or old and in a monogamous heterosexual relationship for 6 months. A screening/baseline run-in phase will request at least 4 measurements of IELT over a 4-6 week period. For each sexual episode, partner will record PEP, IELT, date and time of sexual encounter; patient will fill out PEP. To qualify for the treatment phase, patients must have a measured IELT of 2 minutes or less in 75% of valuable events. A volume of distribution of 0.4 and 0.8 mL will bathe the dorsal penile nerves as they are located just to the right and left of midline. Diffusion should occur across the midline given that the subcutaneous compartment has a low resistance to fluid migration. Diffusion of the drug solution should occur through Buck's fascia to the dorsal penile nerves. A concentration of bupivacaine (0.25%) is used for local nerve blocks. Doses of administration are of 1 mg of bupivacaine for the 0.4 mL volume and 2 mg for the 0.8 mL group. This is less than 1.5% of the maximum permitted dose. […] Patients will be randomized to one of 4 treatment groups. […] Subsequently, patient will be evaluated for eligibility for “treatment phase”—must have either: (1) IELT of 2 minutes or less in at least 75% or sexual episodes; or (2) IELT of 3 minutes or less in at least 75% of sexual episodes with PEP score indicating accompanying psychosocial or relationship distress. […]

CCCCN1CCCCC1C(=O)Nc1c(C)cccc1C (centres unmarked) [bupivacaine]
climax time following treatment (45 seconds prior to treatment) ([1]; 0.2 mL bupivacaine): 4 min
intravaginal latency time increase ([1]; 0.2 mL bupivacaine): increases more than two-fold
side-effect profile compared to previous therapies ([1]; 0.2 mL bupivacaine): better side-effect profile compared to previous therapies
climax time following treatment (45 seconds prior to treatment) ([1]; 0.4 mL bupivacaine): 4 min
intravaginal latency time increase ([1]; 0.4 mL bupivacaine): increases more than two-fold
side-effect profile compared to previous therapies ([1]; 0.4 mL bupivacaine): better side-effect profile compared to previous therapies
adverse dose-related effects ([2]; 1 mg (0.4 mL) or 2 mg (0.8 mL)): not anticipated
climax time following treatment (45 seconds prior to treatment) ([2]; treatment groups, 1 mg in 0.4 mL or 2 mg in 0.8 mL, clinician-injected): 4 min

From US20160101093A1, “METHODS FOR THE TREATMENT OF PREMATURE EJACULATION” (priority 2013, published 2016)
